Data: patent publication US10570184B2, “GLP-1/glucagon receptor co-agonists for medical use” (Novo Nordisk A/S, priority 2014, dated 2020)
Starred links: 1 amine or outer side, 2 acyl side, 3 side chain; linkers in the order of their positions; H or OH if unused. Non-standard residues stand in square brackets, D forms with d. Residues, ends and D or L forms follow the SMILES beside them. Groups on a side chain read outwards from the residue. *: point of attachment. C18 diacid = O=C(O)CCCCCCCCCCCCCCCCC(=O)*; γGlu = O=C(O)[C@H](CCC(=O)[*:2])N[*:1]; AEEA = NCCOCCOCC(=O)O; Aib = CC(C)(N)C(=O)O

Experiments:
human GLP-1 receptor [1] = molecular target: T1, human GLP-1 receptor (Homo sapiens, UniProt P43220); assay: Assay (I)(a) GLP-1 receptor activation, CRE luciferase reporter gene assay in BHK cells; type: cell-based; conditions: without presence of serum albumin; read-out: GLP-1R EC50 (pM) [Assay (I)(a)]
T1 construct: expressed in transfected cells; host or cells: membranes of BHK cells (parent BHKTS13), clone FCW467-12A
T1 sequence (P43220 24-463): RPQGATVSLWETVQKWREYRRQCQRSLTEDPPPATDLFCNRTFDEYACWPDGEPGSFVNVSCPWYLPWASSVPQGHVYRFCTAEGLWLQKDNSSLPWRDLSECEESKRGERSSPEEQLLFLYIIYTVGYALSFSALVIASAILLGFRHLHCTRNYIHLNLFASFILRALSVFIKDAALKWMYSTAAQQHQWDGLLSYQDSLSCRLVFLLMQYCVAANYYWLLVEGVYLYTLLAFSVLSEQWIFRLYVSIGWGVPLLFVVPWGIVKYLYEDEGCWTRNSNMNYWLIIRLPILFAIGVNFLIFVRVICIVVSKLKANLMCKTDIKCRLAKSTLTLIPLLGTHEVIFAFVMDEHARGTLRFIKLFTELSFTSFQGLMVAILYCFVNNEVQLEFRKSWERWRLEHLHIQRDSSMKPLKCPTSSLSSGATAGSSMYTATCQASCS
Protocol: The purpose of this example was to test the activity or potency, of the glucagon derivatives of the invention, in vitro. The in vitro potency is the measure of human GLP-1 receptor (GLP-1R) or glucagon receptor (glucagonR) activation, respectively, in a whole cell assay. In vitro potency was determined by measuring the response of human GLP-1 or glucagon receptor, respectively, in a reporter gene assay. The assay was performed in a stably transfected BHK cell line that expresses either the human GLP-1 receptor or the human glucagon receptor and contains the DNA for the cAMP response element (CRE) coupled to a promoter and the gene for firefly luciferase (CRE luciferase). […] When assay incubation was completed, the luciferase substrate (luciferin) was added and the enzyme converted luciferin to oxyluciferin and produces bioluminescence. The luminescence was measured as the readout for the assay. The cells used in this assay (clone FCW467-12A/KZ10-1) were BHK cells with BHKTS13 as a parent cell line. The cells were derived from a clone (FCW467-12A) that expresses the human GLP-1 receptor and were established by further transfection with CRE luciferase to obtain the current clone. The cells were cultured at 5% CO2 in DMEM medium with 10% FBS, 1×GlutaMAX, 1 mg/ml G418, 240 nM MTX (methotrexate) and 1% pen/strep (penicillin/streptomycin). They were aliquoted and stored in liquid nitrogen. Before each assay, an aliquot was taken up and washed three times in PBS before being suspended at the desired concentration in assay medium. For 96-well plates the suspension was made to give a final concentration of 5×10EE3 cells/well. The following chemicals were used in the assay: Pluronic F-68 (10%) (Gibco 2404), ovalbumin (Sigma A5503), DMEM w/o phenol red (Gibco 11880-028), 1 M Hepes (Gibco 15630), Glutamax 100× (Gibco 35050) and steadylite plus (PerkinElmer 6016757). Assay Medium consisted of DMEM w/o phenol red, 10 mM Hepes, 1× GlutaMAX, 2% Ovalbumin and 0.2% Pluronic F-68. Cell stocks were thawed in a 37° C. water bath. Cells were washed three times in PBS. The cells were counted and adjusted to 5×10EE3 cells/50 μl (1×10EE5 cells/ml) in Assay Medium. A 50 μl aliquot of cells was transferred to each well in the assay plate. Stocks of the test compounds and reference compounds were diluted to a concentration of […] in Assay Medium. Compounds were diluted 10-fold to give the following concentrations: 2×10EE-6 M, 2×10EE-7 M, 2×10EE-8 M; 2×10EE-9 M, 2×10EE-10 M, 2×10EE-11 M, 2×10EE-12 M and 2×10EE-13 M. For each compound a blank assay medium control was also included. A 50 μl aliquot of compound or blank was transferred from the dilution plate to the assay plate. Compounds were tested at the following final concentrations: 1×10EE-6 M, 1×10EE-7 M, 1×10EE-8 M; 1×10EE-9 M, 1×10EE-10 M, 1×10EE-11 M and 1×10EE-12 M and 1×10EE-13 M. The assay plate was incubated for 3 h in a 5% CO2 incubator at 37° C. The assay plate was removed from the incubator and allowed to stand at room temperature for 15 min. A 100 μl aliquot of steadylite plus reagent was added to each well of the assay plate (reagent is light sensitive). Each assay plate was covered with aluminum foil to protect it from light and shaken for 30 min at room temperature. Each assay plate was read in a Perkin Elmer TopCount NXT instrument. The data from the TopCount instrument was transferred to GraphPad Prism software. The software performed a non-linear regression (log(agonist) vs response-Variable slope (four parameter)). EC50 values were calculated by the software and reported in pM.

human GLP-1 receptor [2] = molecular target: T1, human GLP-1 receptor; assay: Assay (II)(a) GLP-1 receptor binding, 125I-GLP-1 displacement SPA on BHK membranes; conditions: without presence of serum albumin; read-out: GLP-1R IC50 (nM) [Assay (II)(a)]
Protocol: The GLP-1 receptor (GLP-1R) binding is a measure of affinity of a compound for the human GLP-1 receptor. The receptor binding of each compound to the human GLP-1 receptor was measured in a displacement binding assay. In this type of assay a labelled ligand (in this case 125I-GLP-1) is bound to the receptor. Each derivative was added in a series of concentrations to isolated membranes containing the human GLP-1 receptor and displacement of the labelled ligand was monitored. The receptor binding was reported as the concentration at which half of the labelled ligand was displaced from the receptor, the IC50 value. In order to test the binding of the derivatives to albumin, the assay may be performed in a very low concentration of serum albumin (max. 0.001% final assay concentration) as well as in the presence of a (considerably) higher concentration of serum albumin (2.0% final assay concentration). An increase of the IC50 value, in the presence of serum albumin indicates an affinity to serum albumin and represents a method to predict a protracted pharmacokinetic profile of the test substance in animal models. The following chemicals were used in the assay: DMEM w/o phenol red (Gibco 11880-028), Pen/strep (Invitrogen 15140-122), G418 (Invitrogen 10131-027), 1 M Hepes (Gibco 15630), EDTA (Invitrogen 15575-038), PBS (Invitrogen 14190-094), fetal calf serum (Invitrogen 16140-071), EGTA, MgCl2 (Merck 1.05832.1000), Tween 20 (Amresco 0850C335), SPA particles (wheat germ agglutinin (WGA) SPA beads, Perkin Elmer RPNQ0001), [125I]-GLP-1]-(7-36)NH2 (produced in-house), OptiPlate™-96 (Perkin Elmer). Buffer 1 consisted of 20 mM Na-HEPES plus 10 mM EDTA and pH was adjusted to 7.4. Buffer 2 consisted of 20 mM Na-HEPES plus 0.1 mM EDTA and pH was adjusted to 7.4. Assay buffer consisted of 50 mM HEPES supplemented with 5 mM EGTA, 5 mM MgCl2, 0.005% Tween 20 and pH was adjusted to 7.4. The cells used in this assay (clone FCW467-12A) were BHK cells with BHKTS13 as a parent cell line. The cells express the human GLP-1 receptor. The cells were grown at 5% CO2 in DMEM, 10% fetal calf serum, 1% Pen/Strep (Penicillin/Streptomycin) and 1.0 mg/ml of the selection marker G418. To make a membrane preparation the cells were grown to approximately 80% confluence. The cells were washed twice in phosphate-buffered saline and harvested. The cells were pelleted using a brief centrifugation and the cell pellet was kept on ice. The cell pellet was homogenised with ULTRA-THURRAX dispersing instrument for 20-30 seconds in a suitable amount of buffer 1 (e.g., 10 ml). The homogenate was centrifuged for 15 minutes. The pellet was re-suspended (homogenised) in 10 ml buffer 2 and centrifuged. This step was repeated once more. The resulting pellet was re-suspended in buffer 2 and the protein concentration was determined. The membranes were aliquoted and stored at minus 80° C. • 1. For the receptor binding assay, 50 μl of the assay buffer was added to each well of an assay plate. • 2. Test compounds were serially diluted to give the following concentrations: 8×10EE-7 M, 8×10EE-8 M, 8×10EE-9 M, 8×10EE-10 M, 8×10EE-11 M, 8×10EE-12 M and 8×10EE-13 M. Twenty-five μl were added to appropriate wells in the assay plate. • 3. Cell membrane aliquots were thawed and diluted to their working concentration. Fifty μl were added to each well in the assay plate. • 4. WGA SPA beads were suspended in assay buffer at 20 mg/ml. The suspension was diluted to 10 mg/ml in assay buffer just prior to addition to the assay plate. Fifty μl were added to each well in the assay plate. • 5. The incubation was started by adding 25 μl of […] solution of [125I]-GLP-1]-(7-36)NH2 to each well of the assay plate. A 25 μl aliquot was reserved for measuring total counts/well. • 6. The assay plate was incubated for 2 h at 30° C. • 7. The assay plate was centrifuged for 10 min. • 8. The assay plate was read in a Perkin Elmer TopCount NXT instrument. […]

EC50 (human GLP-1 receptor [1]) [pM]	IC50 (human GLP-1 receptor [2]) [nM]	SMILES
2	0.1	CC[C@H](C)[C@H](NC(=O)[C@H](CC(C)C)NC(=O)[C@H](Cc1c[nH]c2ccccc12)NC(=O)[C@H](CCC(N)=O)NC(=O)[C@@H](NC(=O)[C@H](Cc1ccccc1)NC(=O)[C@H](CC(=O)O)NC(=O)[C@H](CCCNC(=N)N)NC(=O)[C@H](C)NC(=O)[C@H](CCCNC(=N)N)NC(=O)[C@H](CCCNC(=N)N)NC(=O)[C@H](C)NC(=O)[C@H](CC(=O)O)NC(=O)[C@H](CC(C)C)NC(=O)[C@H](Cc1ccc(O)cc1)NC(=O)[C@H](CCCNC(=N)N)NC(=O)[C@H](CO)NC(=O)[C@H](CC(C)C)NC(=O)[C@H](CC(=O)O)NC(=O)[C@H](CO)NC(=O)[C@@H](NC(=O)[C@H](Cc1ccccc1)NC(=O)[C@@H](NC(=O)CNC(=O)[C@H](CCC(N)=O)NC(=O)C(C)(C)NC(=O)[C@@H](N)Cc1c[nH]cn1)[C@@H](C)O)[C@@H](C)O)C(C)C)C(=O)N[C@@H](CCCCNC(=O)CC[C@H](NC(=O)CC[C@H](NC(=O)CC[C@H](NC(=O)CCCCCCCCCCCCCCCCC(=O)O)C(=O)O)C(=O)O)C(=O)O)C(=O)N[C@H](C(N)=O)[C@@H](C)O [Chem. 14, N^ε28-[(4S)-4-carboxy-4-[[(4S)-4-carboxy-4-[[(4S)-4-carboxy-4-(17-carboxyheptadecanoylamino)butanoyl]amino]butanoyl]amino]butanoyl]-[Aib2,Leu10,Arg12,Ala16,Arg20,Ile27,Lys28]-Glucagon amide] (HELM PEPTIDE1{H.[Aib].Q.G.T.F.T.S.D.L.S.R.Y.L.D.A.R.R.A.R.D.F.V.Q.W.L.I.K.T.[am]}|PEPTIDE2{[O=C(O)CCCCCCCCCCCCCCCCC(=O)[*:2]].[gGlu].[gGlu].[gGlu]}$PEPTIDE1,PEPTIDE2,28:R3-4:R2$$$V2.0)
7	0.1	CC[C@H](C)[C@H](NC(=O)[C@H](CC(C)C)NC(=O)[C@H](Cc1c[nH]c2ccccc12)NC(=O)[C@H](CCC(N)=O)NC(=O)[C@@H](NC(=O)[C@H](Cc1ccccc1)NC(=O)[C@H](CC(=O)O)NC(=O)[C@H](CCC(N)=O)NC(=O)[C@H](C)NC(=O)[C@H](CCCNC(=N)N)NC(=O)[C@H](CCCNC(=N)N)NC(=O)[C@H](CO)NC(=O)[C@H](CCC(=O)O)NC(=O)[C@H](CC(C)C)NC(=O)[C@H](Cc1ccc(O)cc1)NC(=O)[C@H](CCCCN)NC(=O)[C@H](CO)NC(=O)[C@H](CC(C)C)NC(=O)[C@H](CC(=O)O)NC(=O)[C@H](CO)NC(=O)[C@@H](NC(=O)[C@H](Cc1ccccc1)NC(=O)[C@@H](NC(=O)CNC(=O)[C@H](CCC(N)=O)NC(=O)C(C)(C)NC(=O)[C@@H](N)Cc1c[nH]cn1)[C@@H](C)O)[C@@H](C)O)C(C)C)C(=O)N[C@@H](CCCCNC(=O)COCCOCCNC(=O)COCCOCCNC(=O)CC[C@H](NC(=O)CC[C@H](NC(=O)CC[C@H](NC(=O)CCCCCCCCCCCCCCCCC(=O)O)C(=O)O)C(=O)O)C(=O)O)C(=O)N[C@H](C(N)=O)[C@@H](C)O [Chem. 8, N^ε28-[2-[2-[2-[[2-[2-[2-[[(4S)-4-carboxy-4-[[(4S)-4-carboxy-4-[[(4S)-4-carboxy-4-(17-carboxyheptadecanoylamino)butanoyl]amino]butanoyl]amino]butanoyl]amino]ethoxy]ethoxy]acetyl]amino]ethoxy]ethoxy]acetyl]-[Aib2,Leu10,Glu15,Ile27,Lys28]-Glucagon amide] (H-H[Aib]QGTFTSDLSKYLESRRAQDFVQWLIK([AEEA-AEEA-γGlu-γGlu-γGlu-C18 diacid])T-NH2; N-terminus assumed)
